One series relates to P388. In words: Growth inhibition of mouse P388 cells after 72 hrs by SRB assay. The series is classed as functional. The conditions noted are these: P388, 72 h, read-out: ED50 (the source's name).
The next series deals with KB. In words: Growth inhibition of human KB cells after 72 hrs by SRB assay. The series is classed as functional. The conditions noted are these: read-out: ED50 (the source's name).
For another series, the system named is HT-29. In words: Growth inhibition of human HT-29 cells after 72 hrs by SRB assay. The conditions noted are these: HT-29, 72 h, read-out: ED50 (the source's name). The series is classed as functional.
Another series deals with MCF7. In words: Growth inhibition of human MCF7 cells after 72 hrs by SRB assay. It is filed as functional. The note with it: MCF7, 72 h, read-out: ED50 (the source's name).
A further series relates to A549. Put plainly: Growth inhibition of human A549 cells after 72 hrs by SRB assay. The series is classed as functional. The conditions noted are these: A549, 72 h, read-out: ED50 (the source's name).
Series [1] is described as follows: Growth inhibition of rat ASK cells after 72 hrs by SRB assay. The series is classed as functional. The conditions noted are these: read-out: ED50 (the source's name).
A short description of series [2]: Growth inhibition of human KKU-M213 cells after 72 hrs by SRB assay. It is filed as functional. The conditions noted are these: KKU-M213, 72 h, read-out: ED50 (the source's name).
A further series has as its system HuCC-A1. Put plainly: Growth inhibition of human HuCCa1 cells after 72 hrs by SRB assay. The conditions noted are these: HuCC-A1, 72 h, read-out: ED50 (the source's name). The series is classed as functional.
Series [3] is described as follows: Growth inhibition of human KKU100 cells after 72 hrs by SRB assay. The series is classed as functional. The note with it: KKU100, 72 h, read-out: ED50 (the source's name).
The nature of series [4]: Growth inhibition of human HEK293 cells after 72 hrs by SRB assay. The series is classed as cell-based. The conditions noted are these: read-out: ED50.

`C=C1CC[C@@H]2[C@](C)(CO)[C@H](O)CC[C@@]2(C)[C@@H]1/C=C/C1=CCOC1=O`: the EC50 is 35 µM with P388; 5.07 µM in the series with KB; 28.6 µM in the series with HT-29; 18.7 µM in the series on MCF7; 28.2 µM with A549; > 50 µM in series [1]. Also, the EC50 was > 50 µM in series [2], 35.8 µM in the series on HuCC-A1 and 36.9 µM in series [3]. Besides, the GI50 at 72 h in [4] was 7.53 µM.
Regarding `C=C1CC[C@@H]2[C@](C)(CO[Si](c3ccccc3)(c3ccccc3)C(C)(C)C)[C@H](OC(C)=O)CC[C@@]2(C)[C@@H]1/C=C/C1=CCOC1=O`, the EC50 in the series on P388 was 14.5 µM; in the series with KB it was 5.15 µM; in the series with HT-29, 32.5 µM; with MCF7, 7.77 µM; with A549, 9.47 µM; in [1], > 50 µM. In addition, the EC50 in [2] was 16 µM; with HuCC-A1, 24.3 µM; in [3], > 50 µM. Besides, in [4], the GI50 at 72 h was found to be 5.57 µM.
In the case of `C=C1CC[C@@H]2[C@](C)(COC(C)=O)[C@H](O)CC[C@@]2(C)[C@@H]1/C=C/C1=CCOC1=O`, the EC50 with P388 is 27.7 µM; with KB, 25.7 µM; in the series with HT-29, 45 µM; with MCF7, 31.1 µM; in the series on A549, 32.8 µM; in series [1] it was > 50 µM. Besides, the values for the EC50 (in series [2]; in the series on HuCC-A1; in series [3]) were > 50 µM, > 50 µM and 40.2 µM, respectively. For the same compound, the GI50 at 72 h in [4] was 27.8 µM.
As to `C=C1CC[C@@H]2[C@](C)(COC(c3ccccc3)(c3ccccc3)c3ccccc3)[C@H](O)CC[C@@]2(C)[C@@H]1/C=C/C1=CCOC1=O`, the EC50 in the series on P388 was determined as 3.87 µM; in the series on KB it was 4.94 µM; in the series on HT-29, 8.38 µM; in the series on MCF7, 4.86 µM; with A549, 6.79 µM; in series [1], 7.45 µM. Further, the EC50 in [2] is 5.42 µM; in the series with HuCC-A1, 7.78 µM; in series [3] it was 36.2 µM. For the same compound, in [4], the GI50 at 72 h came out at 4.68 µM.
As to `C[C@]1(CO)[C@H]2CC[C@@]3(CO3)[C@@H](/C=C/C3=CCOC3=O)[C@]2(C)CC[C@H]1O`, the EC50 (in the series on P388; in the series with KB; in the series with HT-29; in the series with MCF7; in the series on A549; in [1]) was > 50 µM each time. The EC50 (in series [2]; in the series with HuCC-A1; in series [3]) was > 50 µM in each case. Also, the GI50 at 72 h in [4] is > 50 µM.
For `Cc1c2ccncc2c(C)c2c1[nH]c1ccccc12` [ELLIPTECINE], the EC50 came to 2.12 µM in the series with P388; 2.34 µM in the series on KB; 2.68 µM in the series on HT-29; 1.66 µM in the series with MCF7; 2.37 µM with A549; 2.17 µM in [1]. Further, the EC50 in series [2] came out at 4.75 µM; in the series with HuCC-A1, 3.46 µM; in series [3], 4.16 µM. Besides, the GI50 at 72 h in series [4] was found to be 2.27 µM.
Regarding `C=C1CC[C@@H]2[C@](C)(COC(c3ccccc3)(c3ccccc3)c3ccccc3)[C@H](OC(C)=O)CC[C@@]2(C)[C@@H]1/C=C/C1=CCOC1=O`, the EC50 with P388 is 12.9 µM; in the series on KB, 6.36 µM; in the series with HT-29, 21.9 µM; in the series with MCF7 it was 9.12 µM; in the series with A549, 12 µM; in series [1], 39.9 µM. The EC50 in series [2] is 9.98 µM; in the series on HuCC-A1, 38.6 µM; in series [3] it was > 50 µM. Moreover, in [4], the GI50 at 72 h turned out to be 7.02 µM.
Regarding `C=C1CC[C@@H]2[C@](C)(COC(C)=O)[C@H](OC(C)=O)CC[C@@]2(C)[C@@H]1/C=C/C1=CCOC1=O`, the EC50 in the series on P388 was found to be 27.7 µM; in the series on KB, 25.7 µM; in the series with HT-29, 41.9 µM; in the series on MCF7 it was 28.8 µM; with A549, 34 µM; in series [1] it was 42.5 µM. The results for the EC50 (in [2]; with HuCC-A1; in series [3]) were 37.3 µM, 40.9 µM and > 50 µM, respectively. In addition, the GI50 at 72 h in [4] is 25 µM.
For the compound `CC(C)[Si](OC[C@@]1(C)[C@H]2CC[C@@]3(CO3)[C@@H](/C=C/C3=CCOC3=O)[C@]2(C)CC[C@H]1O)(C(C)C)C(C)C`, the EC50 turned out to be 3.86 µM with P388; 4.59 µM with KB; 2.28 µM in the series with HT-29; 4.98 µM with MCF7; 6.58 µM in the series with A549; 6.6 µM in [1]. Besides, the figures for the EC50 (in series [2]; in the series on HuCC-A1; in [3]) were 3.37 µM, 7.35 µM and 2.93 µM, respectively. Also, the GI50 at 72 h in [4] turned out to be 4.04 µM.
Take `CC(=O)OC[C@@]1(C)[C@H]2CC[C@@]3(CO3)[C@@H](/C=C/C3=CCOC3=O)[C@]2(C)CC[C@H]1OC(C)=O`: the EC50 (in the series on P388; with KB; in the series with HT-29; in the series with MCF7; in the series on A549; in series [1]) was > 50 µM in each case. Besides, the EC50 (in series [2]; in the series on HuCC-A1; in series [3]) was > 50 µM each time. For the same compound, in [4], the GI50 at 72 h is > 50 µM.
For `C=C1CC[C@@H]2[C@](C)(CO[Si](C)(C)C(C)(C)C)[C@H](O)CC[C@@]2(C)[C@@H]1/C=C/C1=CCOC1=O`, the EC50 was found to be 8.24 µM in the series on P388; 5.12 µM in the series with KB; 8.48 µM with HT-29; 7.61 µM in the series with MCF7; 17.2 µM with A549; 9.61 µM in series [1]. Moreover, the EC50 in [2] is 27.4 µM; in the series on HuCC-A1 it was 18.2 µM; in [3], 3.09 µM. For the same compound, the GI50 at 72 h in [4] was determined as 6.61 µM.
`C[C@]1(COC(c2ccccc2)(c2ccccc2)c2ccccc2)[C@H]2CC[C@@]3(CO3)[C@@H](/C=C/C3=CCOC3=O)[C@]2(C)CC[C@H]1O`: the EC50 was 3.33 µM in the series on P388; 4.92 µM in the series on KB; 6.21 µM in the series with HT-29; 5.38 µM in the series on MCF7; 5.88 µM in the series on A549; 6.47 µM in [1]. Further, the EC50 is 4.68 µM in series [2], 7.81 µM in the series on HuCC-A1 and 28.8 µM in series [3]. Also, the GI50 at 72 h in series [4] amounted to 5.39 µM.
In the case of `C=C1CC[C@@H]2[C@](C)(CO[Si](c3ccccc3)(c3ccccc3)C(C)(C)C)[C@H](O)CC[C@@]2(C)[C@@H]1/C=C/C1=CCOC1=O`, the EC50 was determined as 5.51 µM in the series on P388; 4.45 µM in the series with KB; 6.48 µM in the series on HT-29; 4.44 µM in the series with MCF7; 6.49 µM in the series with A549; 7.72 µM in series [1]. For the same compound, the results for the EC50 (in [2]; with HuCC-A1; in series [3]) were 5.07 µM, 5.53 µM and 14.7 µM, respectively. Further, the GI50 at 72 h in series [4] was found to be 4.4 µM.
Take `CC(=O)O[C@@H]1CC[C@]2(C)[C@H](CC[C@@]3(CO3)[C@H]2/C=C/C2=CCOC2=O)[C@]1(C)CO[Si](c1ccccc1)(c1ccccc1)C(C)(C)C`: the EC50 with P388 worked out at 5.25 µM; in the series with KB it was 5.19 µM; in the series on HT-29, 5.22 µM; in the series with MCF7, 6.38 µM; in the series with A549, 8.31 µM; in series [1] it was 8.96 µM. Further, the EC50 in series [2] worked out at 5.13 µM; in the series with HuCC-A1, 8.08 µM; in series [3], 4.5 µM. The GI50 at 72 h in series [4] was 6.01 µM.
Take `CC(C)(C)[Si](C)(C)OC[C@@]1(C)[C@H]2CC[C@@]3(CO3)[C@@H](/C=C/C3=CCOC3=O)[C@]2(C)CC[C@H]1O`: the EC50 with P388 was found to be 15.1 µM; in the series with KB it was 19.2 µM; in the series on HT-29 it was 7.24 µM; with MCF7, 8.18 µM; in the series with A549, 9.36 µM; in series [1] it was 19 µM. The values for the EC50 (in series [2]; with HuCC-A1; in series [3]) were 8.57 µM, > 50 µM and 9.25 µM, respectively. Also, the GI50 at 72 h in series [4] amounted to 6.15 µM.
`CC(=O)OC[C@@]1(C)[C@H]2CC[C@@]3(CO3)[C@@H](/C=C/C3=CCOC3=O)[C@]2(C)CC[C@H]1O`: the EC50 in the series on P388 is 20 µM; in the series with KB, > 50 µM; with HT-29, 48.9 µM; with MCF7, 43.5 µM; with A549, 46.3 µM; in series [1], > 50 µM. Further, the EC50 in [2] was 48.9 µM; with HuCC-A1, > 50 µM; in series [3], > 50 µM. For the same compound, the GI50 at 72 h in [4] came to 38.1 µM.
On to `C=C1CC[C@@H]2[C@](C)(CO[Si](C(C)C)(C(C)C)C(C)C)[C@H](O)CC[C@@]2(C)[C@@H]1/C=C/C1=CCOC1=O`, for which the EC50 with P388 turned out to be 5.96 µM; with KB it was 4.7 µM; in the series on HT-29 it was 7.14 µM; in the series with MCF7, 5.46 µM; in the series with A549, 7.95 µM; in series [1], 7.35 µM. Moreover, the EC50 was found to be 7.06 µM in series [2], 6.72 µM in the series with HuCC-A1 and 18.2 µM in [3]. The GI50 at 72 h in [4] was found to be 5.28 µM.
As for `C=C1CC[C@@H]2[C@](C)(CO[Si](C(C)C)(C(C)C)C(C)C)[C@H](OC(C)=O)CC[C@@]2(C)[C@@H]1/C=C/C1=CCOC1=O`, the EC50 with P388 was 12.1 µM; in the series with KB, 7.17 µM; in the series on HT-29, 17.9 µM; with MCF7 it was 7.07 µM; with A549 it was 22 µM; in series [1], 29.4 µM. In addition, the EC50 in series [2] amounted to 12.6 µM; in the series with HuCC-A1, 10.2 µM; in series [3] it was 4.1 µM. Also, in series [4], the GI50 at 72 h was found to be 8.28 µM.
